What was measured:
hERG channel = target: T1, hERG channel (Homo sapiens, UniProt Q12809); assay: Determination of the effect on the hERG channel in CHO cells (whole-cell patch clamp); format: cell-based; settings: CHO cells stably expressing hERG, room temperature, read-out: IC50 value [µM] for hERG inhibition
T1 construct: expressed in transfected cells
Protocol: Determination of the effect on the hERG channel in CHO cells
An inhibition of the hERG (human Ether-a-go-go-Related Gene) potassium channel is unwanted because it can lead to dangerous arrhythmias. The effect of compounds of the formula I on the cloned human cardiac hERG channel was evaluated in an in vitro model using a whole-cell patch-clamping technique. CHO (Chinese hamster ovary) cells stably expressing hERG, the potassium channel underlying IKr currents in human hearts, were grown in HAM's F-12 media supplemented with 10 % fetal bovine serum, 1 x penicillin/streptomycin and 500 µg/ml G418 (Invitrogen, Carlsbad, CA, USA) in an atmosphere of 95 % air and 5 % carbon dioxide. Cells used for patch-clamping were seeded on glass or plastic coverslips 12 to 36 hours before use. hERG channel currents were recorded at room temperature using the whole-cell configuration of the patch clamp technique with an Axopatch 200B amplifier (Axon Instruments, Foster City, CA, USA). Briefly, electrodes (3 to 6 MΩ resistance) were fashioned from TW150F glass capillary tubes (World Precision Instruments, Sarasota, FL, USA) and filled with pipette solution (containing 120 mM potassium aspartate, 20 mM potassium chloride, 4 mM adenosine triphosphate disodium salt, 5 mM HEPES, 1 mM magnesium chloride; pH adjusted to 7.2 with potassium hydroxide). hERG currents were initiated by a positive voltage pulse (20 mV) followed by a negative pulse (-40 mV) and were recorded for off-line analyses. Once hERG current from a cell perfused with external solution (containing 130 mM sodium chloride, 5 mM potassium chloride, 2.8 mM sodium acetate, 1 mM magnesium chloride, 10 mM HEPES, 10 mM glucose, 1 mM calcium chloride; pH adjusted to 7.4 with sodium hydroxide) without the test compound, i.e. control solution, was stabilized, the cell was perfused with external solution containing the test compound at specific concentrations. For each concentration from each cell, peak amplitude of the steady-state hERG tail current at -40 mV was measured in picoAmpere (pA). The peak amplitude in pA for each concentration (up to a maximum concentration of 10 µM) was compared with that for the control solution from the same cell and expressed as percent value of the control. From the percent values at multiple concentrations, IC50 values for inhibition of hERG can be determined.

upper airway = assay: Effect on upper airway collapsibility in the anesthetized pig (negative pressure challenge); format: in vivo; settings: negative pressure -150 mbar
Excerpt: Effect on upper airway collapsibility in the pig Pharmacological efficacy against obstructive apneas was investigated in chloralose-urethane anesthetized pigs (weight range 20 to 35 kg), a large-animal model for obstructive apneas. Negative pressure generated by a negative pressure device was applied with a cannula to the upper part of the trachea for at least three breaths so that the upper airway was exposed to the negative pressure generated by the device. This caused an upper airway collapse as in an obstructive apnea in control animals treated with vehicle only, and in animals of the treatment group before the test compound was administered (baseline situation). Different levels of negative pressure were used to cause a collapse of the upper airway (-50 mbar, -100 mbar and -150 mbar). These negative pressure challenges were repeated several times before vehicle or test compound was given, and at regular intervals after administration of vehicle or test compound. Whether the upper airway was collapsed or open, was judged by airflow measurement and by the tracheal pressure in the cannula inserted into the upper trachea. In case the upper airway was collapsed by the negative pressure, airflow to the negative pressure device was close to zero. As a second parameter tracheal pressure approached the negative pressure generated by the device during upper airway collapse. Test compounds were administered by intravenous bolus injection. After administration of an effective test compound the upper airway was open during the negative pressure challenges, i.e. not collapsed, as indicated by airflow to the negative pressure device and the fact that tracheal pressure now approached atmospheric pressure in the inspiratory phase where upper airway muscles are activated. In vehicle-treated controls upper airway collapse occurred at every negative pressure challenge at -50 mbar, -100 mbar and -150 mbar. In Table 17, the time after administration of compounds of the formula I from the examples above is shown during which no upper airway collapse occurred (time of inhibition of collapsibility) at a negative pressure of -150 mbar. […]

[1] = 100 µg/kg intravenous bolus injection

T1 sequence (Q12809 whole entry): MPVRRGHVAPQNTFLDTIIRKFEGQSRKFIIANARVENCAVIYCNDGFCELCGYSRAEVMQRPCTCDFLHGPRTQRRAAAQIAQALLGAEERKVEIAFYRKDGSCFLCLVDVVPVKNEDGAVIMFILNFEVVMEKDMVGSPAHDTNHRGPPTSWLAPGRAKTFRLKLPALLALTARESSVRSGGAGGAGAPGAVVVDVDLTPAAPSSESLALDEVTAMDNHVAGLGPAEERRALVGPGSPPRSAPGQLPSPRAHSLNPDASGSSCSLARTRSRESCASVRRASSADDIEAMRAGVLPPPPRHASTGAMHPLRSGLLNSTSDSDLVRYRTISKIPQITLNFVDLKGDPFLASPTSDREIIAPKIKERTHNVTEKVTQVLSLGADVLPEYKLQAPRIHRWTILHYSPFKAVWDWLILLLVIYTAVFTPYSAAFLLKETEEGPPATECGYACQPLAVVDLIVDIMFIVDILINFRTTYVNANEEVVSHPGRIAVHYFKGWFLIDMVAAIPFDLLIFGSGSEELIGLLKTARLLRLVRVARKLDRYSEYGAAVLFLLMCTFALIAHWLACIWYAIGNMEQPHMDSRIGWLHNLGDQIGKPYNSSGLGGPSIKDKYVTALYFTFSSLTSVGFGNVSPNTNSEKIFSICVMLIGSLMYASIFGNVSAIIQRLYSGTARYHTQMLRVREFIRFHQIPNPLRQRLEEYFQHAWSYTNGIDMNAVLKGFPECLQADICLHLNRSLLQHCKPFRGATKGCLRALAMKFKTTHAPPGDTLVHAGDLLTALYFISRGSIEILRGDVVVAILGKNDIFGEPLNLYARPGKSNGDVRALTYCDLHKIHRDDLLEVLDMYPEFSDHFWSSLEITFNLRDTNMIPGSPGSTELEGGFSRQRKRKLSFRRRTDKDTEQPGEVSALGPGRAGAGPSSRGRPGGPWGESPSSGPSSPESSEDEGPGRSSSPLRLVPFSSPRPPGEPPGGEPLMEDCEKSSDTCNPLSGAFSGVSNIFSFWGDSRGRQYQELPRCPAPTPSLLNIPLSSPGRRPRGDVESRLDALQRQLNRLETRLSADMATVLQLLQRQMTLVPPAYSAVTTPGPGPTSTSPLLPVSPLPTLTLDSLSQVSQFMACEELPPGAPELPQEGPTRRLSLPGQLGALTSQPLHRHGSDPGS

SMILES	IC50 (hERG channel) [µM]	Time of inhibition of collapsibility (at -150 mbar) (upper airway; [1])	Time of inhibition of collapsibility (at -150 mbar) (upper airway; 10 µg/kg intravenous bolus injection)
CC[C@@H](NC(=O)c1cc(C(=O)N2CCC[C@@H]2C(=O)OC(C)C)n2c1COCC2)c1ccccc1 [16n, (R)-1-[8-((R)-1-Phenyl-propylcarbamoyl)-3,4-dihydro-1H-pyrrolo[2,1-c][1,4]oxazine-6-carbonyl]-pyrrolidine-2-carboxylic acid isopropyl ester]	> 10	for 120 min	–
CCOC(=O)CNC(=O)c1cc(C(=O)N[C@H](CC)c2ccccc2)c2n1CCOC2 [16k, {[8-((R)-1-Phenyl-propylcarbamoyl)-3,4-dihydro-1H-pyrrolo[2,1-c][1,4]oxazine-6-carbonyl]-amino}-acetic acid ethyl ester]	> 10	for >240 min	–
CC[C@@H](NC(=O)c1cc(C(=O)N[C@H](CC)c2ccccc2)n2c1COCC2)c1ccccc1 [16i, 3,4-Dihydro-1H-pyrrolo[2,1-c][1,4]oxazine-6,8-dicarboxylic acid bis-[((R)-1-phenylpropyl)-amide]]	> 10	–	for 90 min
CCOC(=O)[C@H](C)N(C)C(=O)c1cc(C(=O)N[C@H](CC)c2ccccc2)c2n1CCOC2 [16l, (S)-2-{Methyl-[8-((R)-1-phenyl-propylcarbamoyl)-3,4-dihydro-1H-pyrrolo[2,1-c][1,4]oxazine-6-carbonyl]-amino}-propionic acid ethyl ester]	> 10	for >120 min	–
CC[C@@H](NC(=O)c1cc(C(=O)N[C@H](CC)c2ccc(OC)nc2)n2c1COCC2)c1ccccc1 [16j, 3,4-Dihydro-1H-pyrrolo[2,1-c][1,4]oxazine-6,8-dicarboxylic acid 6-{[(R)-1-(6-methoxy-pyridin-3-yl)-propyl]-amide}8-[((R)-1-phenyl-propyl)-amide]]	> 10	for 120 min	–

Source: patent EP2809669B1, “FUSED PYRROLEDICARBOXAMIDES AND THEIR USE AS PHARMACEUTICALS” (SANOFI, priority 2012, dated 2013)
